According to patent US11897917B2, “Bioconjugation of polypeptides” (The University of York, priority 2017, dated 2024):
Where two headings read alike, the source gives them in different places.

Tests used:
GFP(Y39ThzK) 2B = GFP(Y39ThzK) 2B (Aequorea victoria, UniProt P42212, F64L/H231L/S65T/V163A/Y39K); details: for effect on GFP (denaturation / unfolding): initial screen, 100 equivalents
Method: Palladium reagent 9 to 12 (stock 550 mM in DMSO, final concentration 33 mM) was added to 2b (stock 330 μM in buffer D1, final concentration 300 μM) in a 0.5 mL Eppendorf tube. The reaction mixture was vortex mixed for 1 s and incubated in a water bath at 37° C. The reaction was quenched by the addition of DTT (ca. 5 mg) and centrifuged (5000×g, 2 min). The supernatant was decanted and desalted using a PD SpinTrap G25 column (GE Healthcare Life Sciences) into H2O for mass spectrometry analysis or further manipulation.
Initially a reaction was set up using 25 μM of 2B (final concentration), 100 μM palladium catalyst (final concentration) in PBS pH 7.4. The reaction mix was then incubated at 37° C. for 1 hour before addition of 1 μl of 1% 3-mercaptopropanoic acid solution for every 10 μl of reaction solution in order to quench excess catalyst. Quenched solution was then incubated at room temperature for 15 minutes and then desalted using a PD SpinTrap G25 column (GE Healthcare Life Sciences) into H2O for mass spectrometry analysis or further manipulation. Efficiency of decaging was determined by ESI-MS.
This reaction process was repeated using protein concentrations of 2B up to 300 μM and catalyst concentrations.
9-12 were trialled at 37° C. at pH 7.4 in order to maintain biocompatibility over a range of concentrations and time intervals (Table 1).

glyoxyl-LYRAG 16A = experiment: screening of organocatalysts and aldehyde donors for OPAL reaction
Method: Initially a panel of secondary amines was screened to investigate their ability to catalyse the ligation using a model peptide substrate, glyoxyl-LYRAG 16A and acetaldehyde as an aldehyde donor 32. Second order rate constants for each catalyst (33-38) at 1, 10, and 25 mM loadings were obtained. Next the nature of the α-carbon substituent of the aldehyde donor was investigated by performing reactions using aldehyde donors bearing an aryl substituent (e.g. phenyl acetylaldehyde). Reactions were as shown in Scheme 7 below.
Encouraged by the biological compatibility and site selectivity in these preliminary ligations, attention next turned to optimizing the OPAL by focusing on the choice of organocatalyst and aldehyde donor species. Initially a panel of secondary amines (33-38) were screened to investigate their ability to catalyse the ligation using a model peptide substrate α-oxo-aldehyde-LYRAG 16A and acetaldehyde 32, and second order rate constants were obtained for each catalyst at 1, 10, and 25 mM loadings (Table 4).

[1] = test system: α-phenyl-β-hydroxy aldehyde-LYRAG 50; experiment: screening of aniline catalysts for oxime ligation of aldol-LYRAG; details: 100 mM catalyst, 37° C., 18 hours
Method: […] The solution as then charged with an aniline catalyst 56-59 (1M, 50 μl, DMSO). The reaction was vortexed, and allowed to sit at 37° C. for 18 hours without further agitation. Conversion to the product 52 was confirmed by LC-MS analysis.

[2] = test system: α-phenyl-β-hydroxy aldehyde-LYRAG 50; experiment: screening of aniline catalysts and buffer for retro-aldol decomposition of aldol-LYRAG
Method: The solution was then charged with an aniline catalyst (1M in 50 μl DMSO) selected from compounds 56, 57, 58 and 59 as shown in Scheme 10 below. The reaction was vortexed, and allowed to sit at 37° C. for 18 hours without further agitation. Conversion to the product 16A/16B was confirmed by LC-MS analysis.
[…] The solution was then charged with p-anisidine catalyst 57 (1M, 50 μl, DMSO). The reaction was vortexed, and allowed to sit at 37° C. for 18 hours without further agitation (Scheme 11). Conversion to the product 16A/16B was confirmed by LC-MS analysis.

[3] = 100 equiv. [Pd], 6 h, 37° C., pH 7.4
[4] = organocatalyst loading 1 mM, Donor R group = CH3
[5] = organocatalyst loading 1 mM, Donor R group = Phenyl-alanine
[6] = organocatalyst loading 10 mM, Donor R group = CH3
[7] = organocatalyst loading 10 mM, Donor R group = Phenyl-alanine
[8] = organocatalyst loading 25 mM, Donor R group = CH3
[9] = organocatalyst loading 25 mM, Donor R group = Phenyl-alanine
[10] = pH 7.5, 50 to 16A, PB 200 mM, 37° C., 18 hours

CC(=O)[O-].CC(=O)[O-].[Pd+2] [compound 9, Palladium(II) acetate]
GFP fluorescence (GFP(Y39ThzK) 2B; 100 equiv. [Pd], 6 h): Yes
GFP fluorescence (GFP(Y39ThzK) 2B; 100 equiv. [Pd], 24 h): Yes
effect on GFP (denaturation / unfolding) (GFP(Y39ThzK) 2B; 37° C., pH 7.4): immediate denaturation and eventual precipitation

CN(C)c1ccc(P(C(C)(C)C)C(C)(C)C)cc1.CN(C)c1ccc(P(C(C)(C)C)C(C)(C)C)cc1.[Cl-].[Cl-].[Pd+2] [compound 10, dichlorobis[di-tert-butyl(4-dimethylaminophenyl)phosphine]palladium(II)]
GFP fluorescence (GFP(Y39ThzK) 2B; 100 equiv. [Pd], 6 h): No
% conversion (decaging) (GFP(Y39ThzK) 2B; [3]): 0%
% conversion (decaging) (GFP(Y39ThzK) 2B; 100 equiv. [Pd], 24 h): 0%
GFP fluorescence (GFP(Y39ThzK) 2B; 100 equiv. [Pd], 24 h): No

C=C[CH2-].C=C[CH2-].[Cl][Pd+].[Cl][Pd+] [compound 11, Allylpalladium(II) chloride dimer]
concentration at which reagent denatures GFP (GFP(Y39ThzK) 2B): greater than 0.5 mM
GFP fluorescence (GFP(Y39ThzK) 2B; 1 equiv. [Pd], 1 h): Yes
GFP fluorescence (GFP(Y39ThzK) 2B; 100 equiv. [Pd], 6 h): No
% conversion (decaging) (GFP(Y39ThzK) 2B; [3]): 30%
GFP fluorescence (GFP(Y39ThzK) 2B; 100 equiv. [Pd], 24 h): No
effect on GFP (denaturation / unfolding) (GFP(Y39ThzK) 2B; 37° C., pH 7.4): immediate denaturation and eventual precipitation

O=C(/C=C/c1ccccc1)/C=C/c1ccccc1.O=C(/C=C/c1ccccc1)/C=C/c1ccccc1.O=C(/C=C/c1ccccc1)/C=C/c1ccccc1.[Pd].[Pd] [compound 12, Tris(dibenzylideneacetone)dipalladium(0)]
GFP fluorescence (GFP(Y39ThzK) 2B; 1 equiv. [Pd], 1 h): Yes
GFP fluorescence (GFP(Y39ThzK) 2B; 100 equiv. [Pd], 6 h): Yes
% conversion (decaging) (GFP(Y39ThzK) 2B; 100 equiv. [Pd], 24 h): 80%
GFP fluorescence (GFP(Y39ThzK) 2B; 100 equiv. [Pd], 24 h): Yes
% conversion (decaging) (GFP(Y39ThzK) 2B; 100 equiv. [Pd], 40 h): 100%
GFP fluorescence (GFP(Y39ThzK) 2B; 100 equiv. [Pd], 40 h): Yes
% conversion (decaging) (GFP(Y39ThzK) 2B; 100 equiv. [Pd], 68 h): 90%
GFP fluorescence (GFP(Y39ThzK) 2B; 100 equiv. [Pd], 68 h): Yes
% conversion (decaging) (GFP(Y39ThzK) 2B; 200 equiv. [Pd], 6 h): 40%
GFP fluorescence (GFP(Y39ThzK) 2B; 200 equiv. [Pd], 6 h): Yes
Conversion of 2B to 13A/B (GFP(Y39ThzK) 2B; ESI-MS, after 24 h): > 95%
time to completion of decaging (GFP(Y39ThzK) 2B; after condition optimisation): ≤ 24 h
time to complete decaging (GFP(Y39ThzK) 2B; initial conditions): 48 h
effect on GFP (denaturation / unfolding) (GFP(Y39ThzK) 2B; 37° C., pH 7.4): did not lead to GFP unfolding

O=C(O)[C@@H]1CCCN1 [compound 33, L-proline]
Second Order Rate Constant (glyoxyl-LYRAG 16A; [4]): 0.00009 M⁻¹ s⁻¹
Second Order Rate Constant (glyoxyl-LYRAG 16A; [5]): 1.684 M⁻¹ s⁻¹
Second Order Rate Constant (glyoxyl-LYRAG 16A; [6]): 0.0033 M⁻¹ s⁻¹
Second Order Rate Constant (glyoxyl-LYRAG 16A; [7]): 4.366 M⁻¹ s⁻¹
Second Order Rate Constant (glyoxyl-LYRAG 16A; [8]): 0.0100 M⁻¹ s⁻¹
Second Order Rate Constant (glyoxyl-LYRAG 16A; [9]): 7.899 M⁻¹ s⁻¹

C1CCNCC1 [compound 35, Piperidine]
Second Order Rate Constant (glyoxyl-LYRAG 16A; [4]): >0.0001 M⁻¹ s⁻¹
Second Order Rate Constant (glyoxyl-LYRAG 16A; [6]): 0.0009 M⁻¹ s⁻¹
Second Order Rate Constant (glyoxyl-LYRAG 16A; [8]): 0.0016 M⁻¹ s⁻¹

O=C(O)[C@@H]1CCN1 [compound 36, L-Azetidine 2 carboxylic acid]
Second Order Rate Constant (glyoxyl-LYRAG 16A; [4]): 0.0004 M⁻¹ s⁻¹
Second Order Rate Constant (glyoxyl-LYRAG 16A; [6]): 0.0024 M⁻¹ s⁻¹
Second Order Rate Constant (glyoxyl-LYRAG 16A; [8]): 0.0052 M⁻¹ s⁻¹

C1CNCCOC1 [compound 37, Homomorpholine]
Second Order Rate Constant (glyoxyl-LYRAG 16A; [4]): 0.0022 M⁻¹ s⁻¹
Second Order Rate Constant (glyoxyl-LYRAG 16A; [6]): 0.0166 M⁻¹ s⁻¹
Second Order Rate Constant (glyoxyl-LYRAG 16A; [8]): 0.0252 M⁻¹ s⁻¹

C1CN[C@H](c2nnn[nH]2)C1 [compound 38, (S)-(−)-5-(2-Pyrrolidinyl)-1H-tetrazole]
Second Order Rate Constant (glyoxyl-LYRAG 16A; [4]): 0.0092 M⁻¹ s⁻¹
Second Order Rate Constant (glyoxyl-LYRAG 16A; [5]): 3.792 M⁻¹ s⁻¹
Second Order Rate Constant (glyoxyl-LYRAG 16A; [6]): 0.0551 M⁻¹ s⁻¹
Second Order Rate Constant (glyoxyl-LYRAG 16A; [7]): 11.820 M⁻¹ s⁻¹
Second Order Rate Constant (glyoxyl-LYRAG 16A; [8]): 0.0997 M⁻¹ s⁻¹
Second Order Rate Constant (glyoxyl-LYRAG 16A; [9]): 23.947 M⁻¹ s⁻¹

Nc1ccccc1 [compound 56, aniline]
Conjugation Yield (oxime) ([1]; pH 4.5): 61%
Conjugation Yield (oxime) ([1]; pH 7.5): 95%
Retro-aldol conversion [2, 10]: 25%

COc1ccc(N)cc1 [compound 57, p-anisidine]
Conjugation Yield (oxime) ([1]; pH 4.5): 81%
Conjugation Yield (oxime) ([1]; pH 7.5): 92%
Retro-aldol conversion ([2]; PB, pH 7.5, conc. 10 (Mm)): 0%
Retro-aldol conversion ([2]; PB, pH 7.5, conc. 50 (Mm)): 13%
Retro-aldol conversion ([2]; PB, pH 7.5, conc. 100 (Mm)): 50%
Retro-aldol conversion [2, 10]: 52%

COc1ccc(N)c(C(=O)O)c1 [compound 58, 5-methoxy anthranilic acid]
Conjugation Yield (oxime) ([1]; pH 4.5): 34%
Conjugation Yield (oxime) ([1]; pH 7.5): 97%
Retro-aldol conversion [2, 10]: 8%

Nc1cc([N+](=O)[O-])ccc1O [compound 59, 2-Amino-4-nitrophenol]
Conjugation Yield (oxime) ([1]; pH 4.5): precipitates
Conjugation Yield (oxime) ([1]; pH 7.5): 97%
Retro-aldol conversion [2, 10]: 0%

O=CCc1ccccc1 [phenyl acetylaldehyde]
increase in rate over aldehyde donors bearing alkyl substituents (glyoxyl-LYRAG 16A; with L-proline 33 and tetrazole 38): ≥ 240 fold

Pyrrolidine [compound 34]
Second Order Rate Constant (glyoxyl-LYRAG 16A; [4]): 0.0005 M⁻¹ s⁻¹
Second Order Rate Constant (glyoxyl-LYRAG 16A; [6]): 0.0037 M⁻¹ s⁻¹
Second Order Rate Constant (glyoxyl-LYRAG 16A; [8]): 0.0058 M⁻¹ s⁻¹
